We go through 39 compounds from patent publication US7795278B2 (sanofi-aventis Deutschland GmbH, priority 2004, dated 2010).

Sequence of recombinantly expressed human PARP-1 enzyme (P09874 whole entry): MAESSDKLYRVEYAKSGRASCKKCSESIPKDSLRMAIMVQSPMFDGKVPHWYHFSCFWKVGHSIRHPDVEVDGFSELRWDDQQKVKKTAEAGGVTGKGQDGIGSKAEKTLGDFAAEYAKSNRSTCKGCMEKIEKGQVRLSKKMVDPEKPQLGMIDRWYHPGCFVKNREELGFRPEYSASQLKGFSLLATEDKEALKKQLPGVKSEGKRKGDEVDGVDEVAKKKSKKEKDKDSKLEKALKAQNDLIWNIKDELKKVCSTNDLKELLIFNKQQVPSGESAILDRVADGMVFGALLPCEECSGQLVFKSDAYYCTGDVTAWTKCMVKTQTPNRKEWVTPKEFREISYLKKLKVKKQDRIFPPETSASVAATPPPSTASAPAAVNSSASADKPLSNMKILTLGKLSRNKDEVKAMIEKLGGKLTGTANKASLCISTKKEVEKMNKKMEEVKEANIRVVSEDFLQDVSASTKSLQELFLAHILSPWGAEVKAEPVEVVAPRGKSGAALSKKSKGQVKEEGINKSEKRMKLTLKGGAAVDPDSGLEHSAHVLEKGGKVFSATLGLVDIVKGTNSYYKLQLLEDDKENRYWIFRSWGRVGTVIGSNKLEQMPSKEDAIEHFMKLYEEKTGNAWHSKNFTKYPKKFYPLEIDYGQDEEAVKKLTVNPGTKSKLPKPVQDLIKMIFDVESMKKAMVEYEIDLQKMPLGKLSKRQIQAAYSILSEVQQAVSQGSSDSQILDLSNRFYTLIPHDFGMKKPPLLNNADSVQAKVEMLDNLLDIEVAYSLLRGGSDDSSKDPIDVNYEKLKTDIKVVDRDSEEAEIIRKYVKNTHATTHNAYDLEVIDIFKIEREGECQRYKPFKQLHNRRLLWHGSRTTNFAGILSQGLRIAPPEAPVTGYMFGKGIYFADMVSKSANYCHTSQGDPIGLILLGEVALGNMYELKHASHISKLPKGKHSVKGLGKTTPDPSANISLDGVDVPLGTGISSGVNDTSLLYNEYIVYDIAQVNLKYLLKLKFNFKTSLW

This assay concerns the target recombinantly expressed human PARP-1 enzyme (Homo sapiens, UniProt P09874). As to the kind of experiment: PARP enzyme assay (half-maximum inhibitor concentration). Type of assay: biochemical. The settings on record: DNA-activated PARP-1, 200 μM NAD, tritium-labeled NAD incorporation, room temperature, 1 hour, pH 8.0. The method, then: Pharmacological Investigations PARP Enzyme Assay
The half-maximum inhibitor concentration is determined by incubating the substances to be tested with the DNA-activated, recombinantly expressed and purified PARP-1 enzyme. Specifically, various concentrations of the test substance are incubated in 50 μl of reaction solution, which contains 50 mM Tris, 5 mM MgCl2, 1 mM DTT, 200 μM NAD, 0.1 mCi/ml tritium-labeled NAD, 0.1 mg/ml DNA, 0.1 mg/ml histones, 2 μg/ml recombinantly expressed human PARP-1 enzyme, pH=8.0, at room temperature for 1 hour. The reaction is stopped by adding 150 μl of 20% trichloroacetic acid, and the radiolabeled protein constituents are precipitated. After incubation on ice for 10 minutes, the labeled, insoluble constituents are separated off through a glass fiber filter and, after washing with 20% trichloroacetic acid three times, the radioactivity incorporated by the PARP-1 enzyme is measured by radioluminescence.
IC-50 values were determined in this way for the following compounds: […]
A word on the IC50: it is the midpoint of a concentration-inhibition curve. “4-(6-morpholin-4-ylpyridin-3-yl-amino)-5,6,7,8-tetrahydro-2H-isoquinolin-1-one [Example 4]”: the concentration for half-maximal inhibition (IC50) was found to be 6350 nM.
With “4-[5-({[4-(4-fluorophenyl)-piperazin-1-yl]-5,6,7,8-tetrahydro-2H-isoquinolin-1-one [Example 71]”, the IC50 was found to be 1240 nM.
As for `O=c1[nH]cc(Nc2cccc(O)c2)c2c1CCCC2` [Example 1, 4-(3-hydroxyphenylamino)-5,6,7,8-tetrahydro-2H-isoquinolin-1-one], the IC50 turned out to be 1310 nM.
On to `CNC(=O)c1cccc(Nc2c[nH]c(=O)c3c2CCCC3)c1` [Example 2, N-methyl-3-(1-oxo-1,2,5,6,7,8-hexahydroisoquinolin-4-ylamino)-benzamide], for which the IC50 was found to be 270 nM.
As to `O=c1[nH]cc(Nc2nc(-c3ccncc3)cs2)c2c1CCCC2` [Example 3, 4-(4-pyridin-4-ylthiazol-2-ylamino)-5,6,7,8-tetrahydro-2H-isoquinolin-1-one], the IC50 is 9830 nM.
Take `CC(=O)Nc1cccc(Nc2c[nH]c(=O)c3c2CCCC3)c1` [Example 5, N-[3-(1-oxo-1,2,5,6,7,8-hexahydroisoquinolin-4-ylamino)-phenyl]acetamide]: the IC50 was found to be 390 nM.
For `CS(=O)(=O)c1cccc(Nc2c[nH]c(=O)c3c2CCCC3)c1` [Example 6, 4-(3-methanesulfonylphenyl-amino)-5,6,7,8-tetrahydro-2H-isoquinolin-1-one], the IC50 is 800 nM.
As to `Cc1[nH]c(=O)c2c(c1Nc1cccc(S(C)(=O)=O)c1)CCCC2` [Example 7, 4-(3-methanesulfonylphenyl-amino)-3-methyl-5,6,7,8-tetrahydro-2H-isoquinolin-1-one], the IC50 is 300 nM.
Turning to `O=c1[nH]cc(Nc2cccc(CO)c2)c2c1CCCC2` [Example 8, 4-(3-hydroxymethylphenyl-amino)-5,6,7,8-tetrahydro-2H-isoquinolin-1-one], the IC50 worked out at 610 nM.
As for `O=C1OCc2ccc(Nc3c[nH]c(=O)c4c3CCCC4)cc21` [Example 10], the 50% inhibitory concentration (IC50) was found to be 1430 nM.
`CCOc1cccc(Nc2c[nH]c(=O)c3c2CCCC3)c1` [Example 11, 4-(3-ethoxyphenylamino)-5,6,7,8-tetrahydro-2H-isoquinolin-1-one]: the IC50 was 390 nM.
In the case of `O=c1[nH]cc(Nc2ccc(Cl)nc2)c2c1CCCC2` [Example 12, 4-(6-chloropyridin-3-ylamino)-5,6,7,8-tetrahydro-2H-isoquinolin-1-one], the IC50 worked out at 670 nM.
Turning to `Cc1[nH]c(=O)c2c(c1Nc1cccc(C(=O)N(C)C)c1)CCCC2` [Example 13, N,N-dimethyl-3-(3-methyl-1-oxo-1,2,5,6,7,8-hexahydroisoquinolin-4-ylamino)benzamide], the IC50 was 80 nM.
With `Cc1[nH]c(=O)c2c(c1Nc1cccc(OC(F)(F)F)c1)CCCC2` [Example 14, 3-methyl-4-(3-trifluoromethoxy-phenylamino)-5,6,7,8-tetrahydro-2H-isoquinolin-1-one] the figure was 1210 nM; with `CC(=O)c1cccc(Nc2c[nH]c(=O)c3c2CCCC3)c1` [Example 15, 4-(3-acetylphenylamino)-5,6,7,8-tetrahydro-2H-isoquinolin-1-one], 690 nM; with `CC(=O)Nc1cccc(Nc2c(C)[nH]c(=O)c3c2CCCC3)c1` [Example 17, N-[3-(3-methyl-1-oxo-1,2,5,6,7,8-hexahydroisoquinolin-4-ylamino)-phenyl]acetamide], 140 nM.
For the compound `Cc1[nH]c(=O)c2c(c1-c1cccs1)CCCC2` [Example 18, 3-methyl-4-thiophen-2-yl-5,6,7,8-tetrahydro-2H-isoquinolin-1-one], the IC50 worked out at 380 nM.
Regarding `Cc1[nH]c(=O)c2c(c1-c1cccnc1)CCCC2` [Example 19, 3-methyl-4-pyridin-3-yl-5,6,7,8-tetrahydro-2H-isoquinolin-1-one], the IC50 was 740 nM.
On to `CCCCNC(=O)c1cccc(Nc2c[nH]c(=O)c3c2CCCC3)c1` [Example 20, N-Butyl-3-(1-oxo-1,2,5,6,7,8-hexahydroisoquinolin-4-ylamino)benzamide], for which the IC50 came out at 1280 nM.
With `O=C(c1cccc(Nc2c[nH]c(=O)c3c2CCCC3)c1)N1CCCC1` [Example 21, 4-[3-(Pyrrolidin-1-carbonyl)phenylamino]-5,6,7,8-tetrahydro-2H-isoquinolin-1-one] the figure was 10600 nM.
In the case of `O=C(c1cccc(Nc2c[nH]c(=O)c3c2CCCC3)c1)N1CCN(CC2CC2)CC1` [Example 22, 4-[3-(4-Cyclopropylmethylpiperazine-1-carbonyl)phenylamino]-5,6,7,8-tetrahydro-2H-isoquinolin-1-one], the concentration for half-maximal inhibition (IC50) was 330 nM.
As for `O=C(NCCc1cccnc1)c1cccc(Nc2c[nH]c(=O)c3c2CCCC3)c1` [Example 23, 3-(1-Oxo-1,2,5,6,7,8-hexahydroisoquinolin-4-ylamino)-N-(2-pyridin-3-ylethyl)benzamide], the IC50 worked out at 2010 nM.
In the case of `O=C(c1cncc(-c2c[nH]c(=O)c3c2CCCC3)c1)N1CCCC1` [Example 25, 4-[5-(pyrrolidine-1-carbonyl)-pyridin-3-yl]-5,6,7,8-tetrahydro-2H-isoquinolin-1-one] it was 7700 nM; in that of `O=C(CNC(=O)c1cncc(-c2c[nH]c(=O)c3c2CCCC3)c1)c1ccccc1` [Example 26, 5-(1-oxo-1,2,5,6,7,8-hexahydroisoquinolin-4-yl)-N-(2-oxo-2-phenylethyl)nicotinamide], 1470 nM.
`O=C(NCCc1ccccc1)c1cncc(-c2c[nH]c(=O)c3c2CCCC3)c1` [Example 27, 5-(1-oxo-1,2,5,6,7,8-hexahydroisoquinolin-4-yl)-N-phenethyl-nicotinamide]: the IC50 amounted to 2540 nM.
`O=C(NCc1ccc([N+](=O)[O-])cc1)c1cncc(-c2c[nH]c(=O)c3c2CCCC3)c1` [Example 28, N-(4-nitrobenzyl)-5-(1-oxo-1,2,5,6,7,8-hexahydroisoquinolin-4-yl)nicotinamide]: the half-maximal inhibitory concentration (IC50) is 400 nM.
In the case of `CN(Cc1cccc([N+](=O)[O-])c1)C(=O)c1cncc(-c2c[nH]c(=O)c3c2CCCC3)c1` [Example 32, N-methyl-N-(3-nitrobenzyl)-5-(1-oxo-1,2,5,6,7,8-hexahydroisoquinolin-4-yl)nicotinamide], the IC50 is 770 nM.
On to `O=C(NCCNc1ncccn1)c1cncc(-c2c[nH]c(=O)c3c2CCCC3)c1` [Example 33, 5-(1-oxo-1,2,5,6,7,8-hexahydroisoquinolin-4-yl)-N-[2-(pyrimidin-2-ylamino)ethyl]nicotinamide], for which the IC50 came out at 3690 nM.
In the case of `Cc1cc(CNC(=O)c2cncc(-c3c[nH]c(=O)c4c3CCCC4)c2)no1` [Example 34, N-(5-methylisoxazol-3-ylmethyl)-5-(1-oxo-1,2,5,6,7,8-hexahydroisoquinolin-4-yl)nicotinamide] it was 3480 nM; in that of `Cc1nn(C)c(C)c1CNC(=O)c1cncc(-c2c[nH]c(=O)c3c2CCCC3)c1` [Example 35, 5-(1-oxo-1,2,5,6,7,8-hexahydroisoquinolin-4-yl)-N-(1,3,5-trimethyl-1H-pyrazol-4-ylmethyl)-nicotinamide], 6880 nM; in that of `O=C(c1cncc(-c2c[nH]c(=O)c3c2CCCC3)c1)N1CCC(c2ccncc2)C1` (stereo not drawn) [Example 36, 4-[5-(3-pyridin-4-ylpyrrolidine-1-carbonyl)pyridin-3-yl]-5,6,7,8-tetrahydro-2H-isoquinolin-1-one], 420 nM.
In the case of `CC(=O)Nc1ccc(CNC(=O)c2cncc(-c3c[nH]c(=O)c4c3CCCC4)c2)cc1` [Example 37, N-(4-acetylaminobenzyl)-5-(1-oxo-1,2,5,6,7,8-hexahydroisoquinolin-4-yl)nicotinamide], the IC50 worked out at 4070 nM.
Take `CN(Cc1ccncc1)C(=O)c1cncc(-c2c[nH]c(=O)c3c2CCCC3)c1` [Example 38, N-methyl-5-(1-oxo-1,2,5,6,7,8-hexahydroisoquinolin-4-yl)-N-pyridin-4-ylmethylnicotinamide]: the concentration for half-maximal inhibition (IC50) turned out to be 3190 nM.
In the case of `Cc1cnc(CNC(=O)c2cncc(-c3c[nH]c(=O)c4c3CCCC4)c2)cn1` [Example 39, N-(5-methylpyrazin-2-ylmethyl)-5-(1-oxo-1,2,5,6,7,8-hexahydroisoquinolin-4-yl)nicotinamide], the IC50 was 5890 nM.
Turning to `O=C(NCCc1cccnc1)c1cncc(-c2c[nH]c(=O)c3c2CCCC3)c1` [Example 40, 5-(1-oxo-1,2,5,6,7,8-hexahydroisoquinolin-4-yl)-N-(2-pyridin-3-ylethyl)nicotinamide], the IC50 came out at 4690 nM.
Consider `O=C(NCC1CC(c2ccccc2)=NO1)c1cncc(-c2c[nH]c(=O)c3c2CCCC3)c1` (stereo not drawn) [Example 41, 5-(1-oxo-1,2,5,6,7,8-hexahydroisoquinolin-4-yl)-N-(3-phenyl-4,5-dihydroisoxazol-5-ylmethyl)-nicotinamide], for which the IC50 came out at 3850 nM.
In the case of `CS(=O)(=O)c1ccc(CNC(=O)c2cncc(-c3c[nH]c(=O)c4c3CCCC4)c2)cc1` [Example 42, N-(4-methanesulfonylbenzyl)-5-(1-oxo-1,2,5,6,7,8-hexahydroisoquinolin-4-yl)nicotinamide] it was 1030 nM.
For `O=C(NCCc1ccncc1)c1cncc(-c2c[nH]c(=O)c3c2CCCC3)c1` [Example 43, 5-(1-oxo-1,2,5,6,7,8-hexahydroisoquinolin-4-yl)-N-(2-pyridin-4-ylethyl)nicotinamide], the IC50 was 820 nM.
Consider `NS(=O)(=O)c1ccc(CCNC(=O)c2cncc(-c3c[nH]c(=O)c4c3CCCC4)c2)cc1` [Example 44, 5-(1-oxo-1,2,5,6,7,8-hexahydroisoquinolin-4-yl)-N-[2-(4-sulf-amoylphenyl)ethyl]nicotinamide], for which the IC50 was found to be 8270 nM.
